In brackets after ≈: the same amount, converted by molar mass. Where a name gives a salt, the structure may show the parent alone.
Legend:
[1] = Dissolution of bendamustine HCl in DMSO/water at 15° C. (Example 6); type: physicochemical
Experimental: 37.5 ml of water was placed in a glass beaker and mixing was initiated at about 350 rpm. 2.1266 g mannitol added and mixed for about 5 minutes. About 12.5 ml of DMSO was added and solution brought to about 15° C. 1.2672 g of bendamustine HCl added and mixed. A milky solution was the result.
The sample was not used for analysis purposes, however, 3 ml of DMSO was added and the sample was cloudy. Another 3 ml of DMSO was added and the solution started to clear up. The addition of DMSO corresponds to about 35% DMSO.

[2] = cited from earlier work
[3] = Water uptake of anhydrous Bendamustine HCl; type: physicochemical
Experimental: Bendamustine HCl was an anhydrous form with a water content level of nmt 1.0%. The Bendamustine HCl used herein was not the Form 1 polymorph and was at least similar to an anhydrous version of the Form 2 polymorph. A sample of Bendamustine HCl anhydrous (with a thickness of about 2 mm was is saturated in water after 60 minutes and the water level reached about 4.7-4.8%. Exposing the Bendamustine HCl to atmospheric conditions for 1 hour caused the % water to increase to about 4.5%, corresponding to the monohydrate form (MW Bendamustine HCl=394.7 g/mol and H2O=18 g/mol; [(394.7+18)/394.7]100=104.6%).

| Structure (SMILES) | DMSO content optimal for dissolution ([1]; at 15° C., DMSO added to sample 6IB130709-1 until the solution started to clear up) | solubility in DMSO ([2]; at 25° C., has been reported) | solubility in water ([2]; at 25° C., has been reported) | solubility in 75% water ([1]; 25 mg/ml with mannitol 42.5 mg/ml in DMSO 25% v/v in water, about 15° C. (sample 6IB130709-1), a milky solution resulted) | water level when saturated in water ([3]; anhydrous sample, thickness about 2 mm, after 60 minutes) | % water after exposure to atmospheric conditions ([3]; exposure for 1 hour, corresponds to the monohydrate form) | solubility limit in the preferred Treanda® formulation ([2]; at 5° C., disclosed in U.S. Pat. No. 8,436,190B2) |
| --- | --- | --- | --- | --- | --- | --- | --- |
| Cn1c(CCCC(=O)O)nc2cc(N(CCCl)CCCl)ccc21 [bendamustine, 4-[5-[Bis(2-chloroethyl)amino]-1-methylbenzimidazol-2-yl]butanoic acid] | more than 35% | 79 mg/mL (≈ 221 mM) | 15 mg/mL (≈ 41.9 mM) | – | – | – | – |
| Cn1c(CCCC(=O)O)nc2cc(N(CCCl)CCCl)ccc21 [Bendamustine HCl] | – | – | – | not found to be soluble | 4.7-4.8% | about 4.5% | 27 mg/mL |

Reference: patent publication US20160235717A1, “BENDAMUSTINE PHARMACEUTICAL COMPOSITIONS” (LUITPOLD PHARMACEUTICALS, INC., priority 2013, published 2016)
